# Structures can show the parent of a compound that is named as a salt.
# What was measured:
# [1] = target: T1, cells expressing human oxytocin receptors (Homo sapiens, UniProt P30559); assay: measurement of intracellular calcium (agonist or antagonist nature); assay type: cell-based
# T1 sequence (P30559 1-389): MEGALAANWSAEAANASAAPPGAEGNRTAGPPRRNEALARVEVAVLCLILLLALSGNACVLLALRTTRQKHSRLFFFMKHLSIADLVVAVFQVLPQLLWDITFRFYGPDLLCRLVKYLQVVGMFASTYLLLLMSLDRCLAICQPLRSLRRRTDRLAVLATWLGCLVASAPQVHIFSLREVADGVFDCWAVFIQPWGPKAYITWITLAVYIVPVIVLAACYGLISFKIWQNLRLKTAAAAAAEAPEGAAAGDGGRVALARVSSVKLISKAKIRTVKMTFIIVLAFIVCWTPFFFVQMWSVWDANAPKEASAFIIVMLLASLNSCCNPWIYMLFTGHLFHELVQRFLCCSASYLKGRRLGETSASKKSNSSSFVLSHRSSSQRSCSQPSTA
# Experimental: The agonist or antagonist nature of the compounds is determined in vitro in a test for the measurement of intracellular calcium with respect to cells expressing human oxytocin receptors according to the general technique described in Am. J. Physiol., 268, and Heart Circ. Physiol. (1995), 37, H404-H410.
# [2] = target: T2, human uterine oxytocin receptors (Homo sapiens, UniProt P30559); assay: in vitro binding test: displacement of a radioiodinated oxytocin analog in a membrane preparation; conditions: read-out: IC50 (concentration which inhibits 50% of the binding of the radioiodinated oxytocin analog to its receptors)
# T2 construct: host or cells: membrane preparation
# T2 sequence (P30559 1-389): T1 sequence (P30559 1-389)
# Experimental: The compounds according to the invention have formed the subject of biochemical and pharmacological studies. The affinity of the compounds according to the invention for oxytocin receptors was determined in an in vitro binding test using the method described by J. Elands et al., Eur. J. Pharmacol. (1987), 147, pp. 197-207. This method consists in studying in vitro the displacement of a radioiodinated oxytocin analog at the oxytocin receptors in a membrane preparation of human uterine oxytocin receptors. The IC50 values (concentration which inhibits 50% of the binding of the radioiodinated oxytocin analog to its receptors) are low and vary from 10^−10 to 10^−6 M in the latter test.
# [3] = target: human vasopressin V2 receptors (Homo sapiens, UniProt P30518); assay: affinity for vasopressin V2 receptors (method of Birnbaumer et al.); assay type: binding; conditions: tested at a concentration of 1 μM; read-out: percentage of inhibition on V2 receptors
# human vasopressin V2 receptors, sequence (P30518 whole entry): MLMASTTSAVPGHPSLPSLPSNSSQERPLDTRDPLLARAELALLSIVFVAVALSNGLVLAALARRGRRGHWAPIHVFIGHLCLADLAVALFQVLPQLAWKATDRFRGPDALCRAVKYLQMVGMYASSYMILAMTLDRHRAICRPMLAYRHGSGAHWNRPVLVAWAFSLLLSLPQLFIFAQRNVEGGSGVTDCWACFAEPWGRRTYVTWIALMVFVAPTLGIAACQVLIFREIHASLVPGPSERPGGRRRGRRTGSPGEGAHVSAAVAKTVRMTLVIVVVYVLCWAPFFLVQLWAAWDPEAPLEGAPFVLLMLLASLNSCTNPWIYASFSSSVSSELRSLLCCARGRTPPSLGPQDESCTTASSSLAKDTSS
# Source text: (§1) The affinity of these compounds for human vasopressin V1a receptors (method described by M. Thibonnier et al. in J. Biol. Chem. (1994), 269, pp. 3304-3310), V1b receptors (method described by T. Sugimoto et al. in J. Biol. Chem. (1994), 269, pp. 27088-27092) and V2 receptors (method described by T. Birnbaumer et al. in Nature (Lond.) (1992), 357, pp. 333-335) has also been studied. The compounds studied have little or no affinity for the V1a, V1b and V2 receptors.
# [4] = target: human vasopressin V1a receptors (Homo sapiens, UniProt P37288); assay: affinity for vasopressin V1a receptors (method of Thibonnier et al.); assay type: binding; conditions: tested at a concentration of 1 μM; read-out: percentage of inhibition on V1a receptors
# human vasopressin V1a receptors, sequence (P37288 whole entry): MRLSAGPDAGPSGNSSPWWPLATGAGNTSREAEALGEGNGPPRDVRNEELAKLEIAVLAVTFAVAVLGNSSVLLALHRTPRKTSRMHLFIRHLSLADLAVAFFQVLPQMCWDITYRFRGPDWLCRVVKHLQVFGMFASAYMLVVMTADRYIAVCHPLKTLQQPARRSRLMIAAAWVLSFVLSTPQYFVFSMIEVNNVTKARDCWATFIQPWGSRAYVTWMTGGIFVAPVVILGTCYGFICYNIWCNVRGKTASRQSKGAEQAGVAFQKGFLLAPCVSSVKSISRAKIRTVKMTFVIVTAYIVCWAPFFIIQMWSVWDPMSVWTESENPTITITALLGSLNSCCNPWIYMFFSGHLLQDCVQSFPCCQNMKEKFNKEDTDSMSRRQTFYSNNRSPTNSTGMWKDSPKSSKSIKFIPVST
# Source text: as §1
# [5] = target: T3, human vasopressin V1b receptors (Homo sapiens, UniProt P47901); assay: affinity for vasopressin V1b receptors (method of Sugimoto et al.); assay type: binding; conditions: tested at a concentration of 1 μM; read-out: percentage of inhibition on V1b receptors
# T3 sequence (P47901 1-424): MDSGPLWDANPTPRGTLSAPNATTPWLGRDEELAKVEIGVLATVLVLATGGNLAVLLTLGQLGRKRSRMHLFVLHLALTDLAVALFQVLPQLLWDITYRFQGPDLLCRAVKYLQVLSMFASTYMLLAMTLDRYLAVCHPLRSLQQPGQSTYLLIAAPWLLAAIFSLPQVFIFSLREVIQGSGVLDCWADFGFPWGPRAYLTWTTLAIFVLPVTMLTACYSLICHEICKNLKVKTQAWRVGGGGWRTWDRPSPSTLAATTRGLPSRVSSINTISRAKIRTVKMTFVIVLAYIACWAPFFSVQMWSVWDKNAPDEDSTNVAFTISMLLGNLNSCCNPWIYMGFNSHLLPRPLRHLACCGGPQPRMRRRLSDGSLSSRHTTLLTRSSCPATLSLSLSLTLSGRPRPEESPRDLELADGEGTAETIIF
# Source text: as §1
structure (smiles),measurement,setting,value
"CCN(Cc1ccc[n+]([C@@H]2O[C@H](C(=O)O)[C@@H](O)[C@H](O)[C@H]2O)c1)C(=O)c1ccc(Cl)c(C2(C)C(=O)N(Cc3ccc(OC)cc3OC)c3ccc(Cl)cc32)c1 (stereo partly drawn) [example 3, 1-(β-D-Glucopyranuronosyl)-3-[({4-chloro-3-[5-chloro-1-(2,4-dimethoxybenzyl)-3-methyl-2-oxo-2,3-dihydro-1H-indol-3-yl]benzoyl}(ethyl)amino)methyl]pyridinium chloride]",IC50,[1],3 nM
same,agonist or antagonist nature,[1],antagonist
"CCN(Cc1ccc[n+]([O-])c1)C(=O)c1ccc(Cl)c(C2(C)C(=O)N(Cc3ccc(OC)cc3OC)c3ccc(Cl)cc32)c1 (centres unmarked) [example 7, 4-chloro-3-[5-chloro-1-(2,4-dimethoxybenzyl)-3-methyl-2-oxo-2,3-dihydro-1H-indol-3-yl]-N-ethyl-N-(1-oxypyrid-3-ylmethyl)benzamide hydrochloride]",IC50,[2],< 50 nM
same,inhibition at 1 µM,[3],< 50%
same,inhibition at 1 µM,[4],< 50%
same,inhibition at 1 µM,[5],< 50%
"CCN(Cc1ccc[n+](CC(=O)O)c1)C(=O)c1ccc(Cl)c(C2(C)C(=O)N(Cc3ccc(OC)cc3OC)c3ccc(Cl)cc32)c1 (centres unmarked) [example 2, 1-Carboxymethyl-3-[({4-chloro-3-[5-chloro-1-(2,4-dimethoxybenzyl)-3-methyl-2-oxo-2,3-dihydro-1H-indol-3-yl]benzoyl}(ethyl)amino)methyl]pyridinium chloride]",IC50,[2],6.9 nM
"CCN(Cc1ccc[n+]([O-])c1)C(=O)c1ccc(Cl)c(C2(C)C(=O)N(Cc3ccc(OC)cc3OC)c3ccc(Cl)cc32)c1 (centres unmarked) (as salt: hydrochloride) [example 7, 4-chloro-3-[5-chloro-1-(2,4-dimethoxybenzyl)-3-methyl-2-oxo-2,3-dihydro-1H-indol-3-yl]-N-ethyl-N-(1-oxypyrid-3-ylmethyl)benzamide hydrochloride]",melting point,,176 °C

# — US7488743B2, “Indolin-2-one pyridine derivatives, preparation and therapeutic use thereof” (Sanofi-Aventis, priority 2004, dated 2009)
